For 3 molecules, Ratio IC50 and IC50 results are on record in ChEMBL document CHEMBL1146525, “New triterpenoid alkaloid cholinesterase inhibitors from Buxus hyrcana” (J Nat Prod, 2003).

Bounds are passed on as bounds.

Assay [1] can be described thus: Selectivity ratio of IC50 for electric eel AChE to IC50 for BChE.
For the next assay, the target named is Cholinesterase (Homo sapiens, UniProt P06276). As to the kind of experiment: Inhibition of BChE.
For a further assay, the target named is Acetylcholinesterase (Electrophorus electricus, UniProt O42275). As to the kind of experiment: Inhibition of electric eel AChE by modified Ellman method. (In general: In Ellman's method for cholinesterases, released thiocholine reacts with DTNB.)
Chain of Acetylcholinesterase (O42275 whole entry): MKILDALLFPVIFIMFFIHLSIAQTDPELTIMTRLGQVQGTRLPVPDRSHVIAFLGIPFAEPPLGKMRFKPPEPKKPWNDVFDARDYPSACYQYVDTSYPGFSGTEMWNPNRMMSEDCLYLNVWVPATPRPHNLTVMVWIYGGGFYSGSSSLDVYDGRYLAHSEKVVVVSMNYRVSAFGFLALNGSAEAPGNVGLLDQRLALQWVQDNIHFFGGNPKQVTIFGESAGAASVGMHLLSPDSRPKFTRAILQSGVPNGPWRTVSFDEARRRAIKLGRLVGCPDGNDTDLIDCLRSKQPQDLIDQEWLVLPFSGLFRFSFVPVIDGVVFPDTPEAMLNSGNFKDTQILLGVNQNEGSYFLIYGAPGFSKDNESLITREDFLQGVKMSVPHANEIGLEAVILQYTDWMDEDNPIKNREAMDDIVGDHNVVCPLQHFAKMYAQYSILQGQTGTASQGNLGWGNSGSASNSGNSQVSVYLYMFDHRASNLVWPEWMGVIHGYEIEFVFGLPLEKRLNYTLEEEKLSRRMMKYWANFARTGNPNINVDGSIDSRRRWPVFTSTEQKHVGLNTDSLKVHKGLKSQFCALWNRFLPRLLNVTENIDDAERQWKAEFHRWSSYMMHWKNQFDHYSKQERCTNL

Chain of Cholinesterase (P06276 whole entry): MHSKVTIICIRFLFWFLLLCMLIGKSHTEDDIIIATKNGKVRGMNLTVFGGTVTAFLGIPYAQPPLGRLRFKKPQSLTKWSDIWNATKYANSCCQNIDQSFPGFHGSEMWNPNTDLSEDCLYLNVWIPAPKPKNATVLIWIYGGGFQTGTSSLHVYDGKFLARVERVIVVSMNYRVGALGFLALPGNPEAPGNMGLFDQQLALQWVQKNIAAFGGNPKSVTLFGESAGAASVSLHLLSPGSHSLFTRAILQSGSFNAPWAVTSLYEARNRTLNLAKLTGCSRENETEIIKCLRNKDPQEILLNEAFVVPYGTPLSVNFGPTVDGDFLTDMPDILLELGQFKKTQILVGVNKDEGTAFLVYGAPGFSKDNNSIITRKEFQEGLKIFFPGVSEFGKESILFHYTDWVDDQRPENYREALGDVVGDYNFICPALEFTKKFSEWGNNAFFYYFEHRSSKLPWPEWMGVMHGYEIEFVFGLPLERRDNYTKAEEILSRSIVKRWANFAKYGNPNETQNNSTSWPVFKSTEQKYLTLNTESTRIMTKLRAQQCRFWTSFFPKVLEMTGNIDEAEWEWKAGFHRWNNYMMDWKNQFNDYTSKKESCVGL

For orientation: IC50 means the midpoint of a concentration-inhibition curve. A high value points to weaker potency. Take `C[C@@H]([C@H]1CC[C@@]2(C)[C@@H]3CC[C@H]4C(C)(C)[C@@H](NC(=O)c5ccccc5)CC[C@]4(O)CC3=CC[C@]12C)N(C)C` [N-BENZOYLBUXAHYRCANINE]: the Ratio IC50 in assay [1] came to 3.2. Further, the values for the half-inhibitory concentration (IC50) on Cholinesterase and at Acetylcholinesterase were 311 µM and over 1000 µM, respectively.
As to `CC(C)C(=O)N[C@H]1CC[C@]2(O)CC3=CC[C@]4(C)[C@@H]([C@H](C)N(C)C)CC[C@@]4(C)[C@@H]3CC[C@H]2C1(C)C` [N-ISOBUTYROYLBUXAHYRCANINE], the Ratio IC50 in assay [1] turned out to be 18.6. In addition, the half-inhibitory concentration (IC50) at Cholinesterase is 53.7 µM; against Acetylcholinesterase it was over 1000 µM.
For `C/C=C(\C)C(=O)N[C@H]1CC[C@]2(O)CC3=CC[C@]4(C)[C@@H]([C@H](C)N(C)C)CC[C@@]4(C)[C@@H]3CC[C@H]2C1(C)C` [N-TIGLOYLBUXAHYRCANINE], the Ratio IC50 in assay [1] is 14.2. In addition, the IC50 on Cholinesterase was determined as 31.2 µM; at Acetylcholinesterase, 444 µM.
